Results reported in patent US9695438B2, “Wheat plants having increased resistance to imidazolinone herbicides” (University of Saskatchewan, priority 2001, dated 2017).

Columns and labels:
Nicotiana tabacum plants = details: plants homozygous for both mutations versus plants homozygous for each single mutation; cited from earlier work
[1] = test system: wheat plants (Triticum aestivum L. cv CDC Teal and mutant lines); test: Whole-plant reaction to imazamox spray (resistant / intermediate / susceptible rating); format: in vivo
Description: Approximately 40,000 seeds of Triticum aestivum L. cv CDC Teal (Hughes and Hucl, 1993 Can. J. Plant Sci. 73:193-197) were mutagenized using modified procedures described by Washington and Sears (1970). Seeds were pre-soaked in distilled water for four hours, followed by treatment with 0.3% EMS for six hours. Seeds were rinsed continually with tap water for seven hours and allowed to dry for approximately four hours before being planted in the field. The M1 plants were selfed and the seed was harvested in bulk. Approximately 2×10^6 M2 plants were grown in the field the following year and were sprayed at the two leaf stage with imazamox at a rate of 40 g ai ha^−1 in a spray volume of 100 L ha^−1. Merge 0.05% (v/v) adjuvant was added to the spray solution. Six lines resistant to imazamox were selected and designated as lines 1A, 9A, 10A, 11A, 15A, and 16A. The M3 and M4 generations were grown in a walk-in growth chamber and plants resistant to imazamox were selected using rates of 20 g ai ha^−1. Resistant plants were selected in the M5 generation after application of 40 g ai ha^−1 in the field. M5 seed was homozygous for the trait, as progeny testing detected no segregation for resistance to imazamox.
To determine the genetic control of resistance to imazamox in the six wheat lines, reciprocal crosses between the six homozygous resistant M6 lines and CDC Teal (susceptible to imazamox) were made. Randomly selected F1 plants from each of the crosses were backcrossed to CDC Teal to form backcross (BC)F1 populations. To investigate allelism, all possible inter-crosses between the six mutants and SWP965001 (Grandin/3*Fidel—FS-4) were made. SWP965001 is a spring wheat line that is homozygous for the FS-4 allele. Parental genotypes were grown in a walk-in growth chamber with a 16 hour photoperiod and a 24° C. day and 16° C. night temperature regime. Spikes that were ¾ emerged from the boot were emasculated and then pollinated 2-3 days after the emasculation date. Randomly selected F2 plants from all segregating crosses were selfed to produce F2:3 families. Parental, F1, BCF1, F2 plants and F2:3 families were tested for reaction to imazamox. All experiments were conducted in a walk-in growth chamber with a 16 hour photoperiod and a 23° C. day and 16° C. night temperature regime. A completely random design was used for all experiments. In experiments involving F2:3 families, effort was taken to randomize both within and among families. The F1 and F2 populations were screened in the same experiment along with parental genotypes and CDC Teal as controls. Both the BCF1 and F2:3 populations were screened in two separate experiments along with appropriate parental genotypes as controls.
Herbicide treatments were applied to plants growing in 8×16 cell flats at the two leaf stage using a traveling cable sprayer calibrated to spray 100 L ha^−1. Imazamox was applied to plants at a rate of 20 g ai ha^−1 using an 8001 EVS nozzle at a pressure of 275 kPa. Merge surfactant (0.05% v/v) was added to the herbicide solution prior to application. Fifteen days after herbicide application, plants were rated based on parental reactions and were considered as resistant, intermediate, or susceptible. […] For Mendelian analysis of the segregating populations, plants were scored into resistant and susceptible categories and tested for goodness of fit to various 1 gene, 2 gene and 3 gene models using chi-square analysis. […]

[2] = test system: wheat genotypes (BW755, Teal15A, 15A/11A); test: Injury of wheat genotypes treated with 10× or 30× rate of imazamox; format: in vivo, Triticum aestivum
Description: FIG. 7 is a table comparing injury sustained by three wheat genotypes when treated with either a 10× or 30× rate of imazamox. The 1× rate is 20 g/ha. BW755 contains the FS4 mutant gene. 15A/11A is a bulk of selfed progeny from the cross of Teal11A and Teal15A. The population was not yet homozygous at all three non-allelic loci.
The presence of two IMI nucleic acids in Teal 15A provides increased tolerance to imidazolinone herbicides compared to a line such as BW755 carrying only one IMI nucleic acid. This increased tolerance is reflected both in less injury at higher herbicide rates, but in having more uninhibited AHAS enzyme activity.
Combining three non-allelic genes each conferring tolerance to imidazolinone herbicides results in greater tolerance than with only two non-allelic genes (FIG. 7).

## COc1nc(C)nc(NC(=O)NS(=O)(=O)c2ccccc2Cl)n1 [chlorsulfuron]
Nicotiana tabacum plants
  resistance to foliar applications relative to single mutation plants: five-fold more resistant

## COCc1cnc(C2=NC(C)(C(C)C)C(=O)N2)c(C(=O)O)c1 (stereo not shown) [imazamox]
[1]; CDC Teal (wild type parent)
  reaction to imazamox: susceptible
[1]; F1 plants of reciprocal crosses between resistant lines and CDC Teal, 20 g ai ha^−1
  survival after application of imazamox: survived
[1]; F1 plants of resistant lines crossed with CDC Teal, except 15A×Teal, 20 g ai ha^−1
  reaction to imazamox: intermediate reaction
[1]; fourteen F1 plants from 15A×Teal cross, 20 g ai ha^−1
  reaction to imazamox: resistant
[1]; selected lines 1A, 9A, 10A, 11A, 15A, 16A, M2 plants in field, two leaf stage, 40 g ai ha^−1
  reaction to imazamox: resistant
[2]; 10× rate (200 g/ha), one gene plants (BW755, FS4)
  plant injury: all treated one gene plants were injured
[2]; 10× rate (200 g/ha), two gene plants (Teal 15A)
  plant injury: no two gene plants were injured
[2]; 30× rate (600 g/ha), homozygous population of Teal15A
  plant injury: all plants of the homozygous population of Teal15A sustained injury
[2]; 30× rate (600 g/ha), still-segregating selfed population of Teal15A crossed with Teal11A
  plant injury: over half of plants sustained no injury
